Like-named read-outs stand apart in the source and are kept apart here. Marks after values point to notes of the source that are not given here.
Columns and labels:
[1] = test system: rat models subjected to rib fracture; assay: Effect of promoting fracture healing in rib fracture-induced rat model (callus volume, callus osteoid volume); assay type: in vivo, SD rats; details: for Changes on callus volume (mm^3): 200 mg/kg oral once a day for 2 weeks from day 2 of surgery, 8th and 9th ribs, vehicle control 37.22 ± 8.23; for Changes on callus osteoid volume (OV/callus, %): 200 mg/kg oral once a day for 2 weeks, 8th rib, vehicle control 35.88 ± 5.06
Method: The benzamidine compounds were assayed for therapeutic effect on bone fracture in rat models subjected to rib fracture. Benzamidine derivates are dosed from 2 days after operation for 2 weeks, and the changes on the volume and histology of callus were observed.
A total of 54 SD rats (8 weeks old upon receipt, Jung Ang Lab. Animal Co., Korea) were used. While being housed at a density of three to a plastic cage, the experimental animals were kept in a breeding room under controlled temperature (20-25° C.) and humidity (30-35%). Under light-dark cycles of 12 hours, the rats were allowed to have free access to feedstuff and tap water.
200 mg of benzamidine compounds (Methansulfonic acid or Hydrochloride) were completely dissolved in 5 ml of sterilized distilled water. The benzamidine derivatives in the solutions was orally administered at doses of 200 mg per kg of body weight once a day for 2 weeks from day 2 of the surgery.
8th and 9th rib of each animal was exposed by general operation under ketamine HCl and xylazine HCl anesthesia, and the exposed ribs were crossly dissected using surgical scissors. After rib-fracture, surgical wounds were closed with general skin suture.
8th and 9th ribs of each animal were separated at sacrifice and then the long axis and short axis of callus were calculated as mm units. The volume of callus was calculated as following Equation 2. Callus volume(mm^3)=(a×b^2)/2 Equation 2 • a: long diameter of bony callus • b: short diameter of bony callus
The 8th rib including fracture sites of each rat was separated and fixed in 10% neutral buffered formalin, and then decalcified in decalcifying solution (24.4% formic acid, and 0.5N sodium hydroxide) for 5 days (mixed decalcifying solution was exchanges once a day for 5 days). After decalcification, the rib was embedded in paraffin, sectioned (3˜4 μm) and stained with hematoxylin-eosin or Masson's trichrome for composition of callus observation.
Osteloid volume (OV/callus) in callus regions of prepared histological specimens were detected as % levels using automated image analysis (analySIS Image Processing; SIS, Germany) under microscopy.

[2] = test system: osteoclast differentiation; assay: Inhibitory effects on osteoclast differentiation (co-culture of bone marrow cells with osteoblast, TRAP staining); assay type: cell-based, mice; details: co-culture of bone marrow cells and osteoblast, 7 days, TRAP-positive osteoclasts versus controls; for inhibition at 1 µM: Mus musculus, Osteoclast, 168 h, read-out: % inhibitory activity on osteoclastogenesis
Summary of the method: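 Bone marrow cells from 6–8-week male ddY mice co-cultured with neonatal ICR mouse calvarial osteoblasts in α-MEM/FBS with dexamethasone (10^−7M) and vitamin D3 (10^−8M) for 7 days, compound and medium renewed every 2–3 days. TRAP-positive cells with ≥3 nuclei counted; inhibition given as percent of control.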

Row | Structure (SMILES) | Changes on callus volume (mm^3) [1] | Changes on callus osteoid volume (OV/callus, %) [1] | inhibition at 1 µM ([2]; 1 μm) | % inhibitory activity on osteoclastogenesis ([2]; 1 μm) | inhibition at 1 µM ([2]; 1 m)
1 | Cc1sc(-c2cccnc2)nc1-c1ccc(OCCCCCOc2ccc(C(=N)NO)cc2)cc1 [Example 13, N-hydroxy-4-(5-[4-(5-methyl-2-pyridin-3-yl-1,3-thiazol-4-yl)phenoxy]pentoxy)-benzamidine] | 23.15 ± 7.85* mm^3 | 43.19 ± 4.47 % | 73.5% | – | –
2 | CC(C)c1nc(-c2ccc(OCCCCCOc3ccc(C(=N)NO)cc3)cc2)c(CC2CCCC2)s1 [Example 47, N-hydroxy-4-(5-[4-(5-cyclopentylnnethyl-2-isopropyl-1,3-thiazol-4-yl)phenoxy]pentoxy)-benzamidine] | 27.56 ± 6.94** mm^3 | 45.69 ± 7.07% | – | 90.0% | –
3 | CCCN(CCC)c1nc(-c2ccc(OCCCCCOc3ccc(C(=N)NO)cc3)cc2)c(CC)s1 [Example 138, N-hydroxy-4-(5-[4-(2-dipropylamino-5-ethyl-1,3-thiazol-4-yl)phenoxy]pentoxy)-benzamidine] | 27.34 ± 5.46* mm^3 | 53.83 ± 7.84 % | – | – | 91%
